Measured values as given in patent US8461151B2, “Aryl-/heteroaryl-cyclohexenyl-tetraazabenzo[e]azulenes” (Hoffmann-La Roche Inc., priority 2010, dated 2013).
Where a name gives a salt, the structure may show the parent alone.

Target: T1, human V1a receptor (Homo sapiens, UniProt P37288)
T1 construct: expressed in transfected cells; host or cells: HEK293 cells, transiently transfected; membranes
Experiment: human V1a receptor binding studies (3H-Vasopressin SPA, membranes of transfected HEK293 cells)
Details: 3H-Vasopressin displacement, HEK293 cell membranes, SPA beads, 1 h at room temperature, Ki by Cheng-Prussoff from IC50, read-out: pKi (hV1a) (converted)
Protocol: The human V1a receptor was cloned by RT-PCR from total human liver RNA. The coding sequence was subcloned in an expression vector after sequencing to confirm the identity of the amplified sequence. […] Cell membranes were prepared from HEK293-cells transiently transfected with the expression vector and grown in 20 liter fermenters with the following protocol.
50 g of cells are resuspended in 30 ml freshly prepared ice cold Lysis buffer (50 mM HEPES, 1 mM EDTA, 10 mM magnesium dichloride adjusted to pH=7.4+ complete cocktail of protease inhibitor (Roche Diagnostics)). Homogenized with Polytron for 1 min and sonicated on ice for 2×2 minutes at 80% intensity (Vibracell sonicator). The preparation is centrifuged 20 min at 500 g at 4° C., the pellet is discarded and the supernatant centrifuged 1 hour at 43,000 g at 4° C. (19,000 rpm). The pellet is resuspended in 12.5 ml Lysis buffer+12.5 ml sucrose 20% and homogenized using a Polytron for 1-2 min. The protein concentration is determined by the Bradford method and aliquots are stored at −80° C. until use. For binding studies 60 mg Yttrium silicate SPA beads (Amersham®) are mixed with an aliquot of membrane in binding buffer (50 mM Tris, 120 mM sodium chloride, 5 mM potassium chloride, 2 mM calcium dichloride, 10 mM magnesium dichloride) for 15 minutes with mixing. 50 μl of bead/membrane mixture is then added to each well of a 96 well plate, followed by 50 μl of 4 nM 3H-Vasopressin (American Radiolabeled Chemicals). For total binding measurement 100 μl of binding buffer are added to the respective wells, for non-specific binding 100 μl of 8.4 mM cold vasopressin and for compound testing 100 μl of a serial dilution of each compound in 2% dimethyl sulfoxide. The plate is incubated 1 h at room temperature, centrifuged 1 min at 1000 g and counted on a Packard Top-Count. Non-specific binding counts are subtracted from each well and data is normalized to the maximum specific binding set at 100%. To calculate an IC50 the curve is fitted using a non-linear regression model (XLfit) and the Ki is calculated using the Cheng-Prussoff equation.

T1 sequence (P37288 whole entry): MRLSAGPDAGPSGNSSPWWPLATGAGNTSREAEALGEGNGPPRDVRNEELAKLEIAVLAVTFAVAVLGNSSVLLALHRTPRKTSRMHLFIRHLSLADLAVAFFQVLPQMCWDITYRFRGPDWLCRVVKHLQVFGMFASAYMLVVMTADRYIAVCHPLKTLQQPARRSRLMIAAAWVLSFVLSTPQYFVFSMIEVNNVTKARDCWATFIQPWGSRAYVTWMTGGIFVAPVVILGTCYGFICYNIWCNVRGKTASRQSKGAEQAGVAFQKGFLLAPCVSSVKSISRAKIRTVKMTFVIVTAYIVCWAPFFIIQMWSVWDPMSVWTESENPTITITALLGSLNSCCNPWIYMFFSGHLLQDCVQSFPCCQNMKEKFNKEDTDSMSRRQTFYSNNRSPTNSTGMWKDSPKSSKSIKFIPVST

**Q.** For `COc1ccc(F)cc1C1=CCC(c2nnc3n2-c2ccc(Cl)cc2CN(C)C3)CC1` (racemic) [Example 19, (RS)-8-Chloro-1-[4-(5-fluoro-2-methoxy-phenyl)-cyclohex-3-enyl]-5-methyl-5,6-dihydro-4H-2,3,5,10b-tetraaza-benzo[e]azulene], which Ki is on record?
**A.** 10 nM

**Q.** For `Cc1ccccc1C1=CCC(c2nnc3n2-c2ccc(Cl)cc2CNC3)CC1` (racemic) [Example 3, (RS)-8-Chloro-1-(4-o-tolyl-cyclohex-3-enyl)-5,6-dihydro-4H-2,3,5,10b-tetraaza-benzo[e]azulene hydrochloride], which Ki is on record?
**A.** 5.13 nM

**Q.** With `COc1ccc(F)cc1C1=CCC(c2nnc3n2-c2ccc(Cl)cc2CN(C(=O)OC(C)(C)C)C3)CC1` (racemic) [Example 17, (RS)-8-Chloro-1-[4-(5-fluoro-2-methoxy-phenyl)-cyclohex-3-enyl]-4H,6H-2,3,5,10b-tetraaza-benzo[e]azulene-5-carboxylic acid tert-butyl ester] as the molecule, how does the Ki read?
**A.** 20.4 nM

**Q.** For `N#Cc1cccc(C2=CCC(c3nnc4n3-c3ccc(Cl)cc3CNC4)CC2)c1` (racemic) [Example 21, (RS)-3-[4-(8-Chloro-5,6-dihydro-4H-2,3,5,10b-tetraaza-benzo[e]azulen-1-yl)-cyclohex-1-enyl]benzonitrile hydrochloride], which Ki is on record?
**A.** 427 nM

**Q.** For `Cc1ccccc1C1=CCC(c2nnc3n2-c2ccc(Cl)cc2CN(C)C3)CC1` (racemic) [Example 4, (RS)-8-Chloro-5-methyl-1-(4-o-tolyl-cyclohex-3-enyl)-5,6-dihydro-4H-2,3,5,10b-tetraaza-benzo[e]azulene], which Ki is on record?
**A.** 2.09 nM

**Q.** `CN1Cc2cc(Cl)ccc2-n2c(nnc2C2CC=C(c3ncccc3F)CC2)C1` (single isomer, unassigned; (+)) [Example 33, (+)-8-Chloro-1-[-4-(3-fluoro-pyridin-2-yl)-cyclohex-3-enyl]-5-methyl-5,6-dihydro-4H-2,3,5,10b-tetraaza-benzo[e]azulene] was tested. Which Ki did it give?
**A.** 5.13 nM

**Q.** How did the Ki turn out when `CN1Cc2cc(Cl)ccc2-n2c(nnc2C2CC=C(c3ncccc3F)CC2)C1` (single isomer, unassigned; (-)) [Example 31, (−)-8-Chloro-1-[-4-(3-fluoro-pyridin-2-yl)-cyclohex-3-enyl]-5-methyl-5,6-dihydro-4H-2,3,5,10b-tetraaza-benzo[e]azulene] was run?
**A.** 8.13 nM

**Q.** Which Ki does the source give for `Fc1cccnc1C1=CCC(c2nnc3n2-c2ccc(Cl)cc2CNC3)CC1` (single isomer, unassigned; (+)) [Example 32, (+)-8-Chloro-1-[-4-(3-fluoro-pyridin-2-yl)-cyclohex-3-enyl]-5,6-dihydro-4H-2,3,5,10b-tetraaza-benzo[e]azulene] here?
**A.** 38.9 nM

**Q.** Which Ki does the source give for `FC(F)(F)Oc1cccc(C2=CCC(c3nnc4n3-c3ccc(Cl)cc3CNC4)CC2)c1` (racemic) [Example 9, (RS)-8-Chloro-1-[4-(3-trifluoromethoxy-phenyl)-cyclohex-3-enyl]-5,6-dihydro-4H-2,3,5,10b-tetraaza-benzo[e]azulene hydrochloride] here?
**A.** 331 nM

**Q.** For `CN1Cc2cc(Cl)ccc2-n2c(nnc2C2CC=C(c3cccc(C#N)c3)CC2)C1` (racemic) [Example 22, (RS)-3-[4-(8-Chloro-5-methyl-5,6-dihydro-4H-2,3,5,10b-tetraaza-benzo[e]azulen-1-yl)-cyclohex-1-enyl]benzonitrile], which Ki is on record?
**A.** 56.2 nM

**Q.** Which Ki does the source give for `CC(C)(C)OC(=O)N1Cc2cc(Cl)ccc2-n2c(nnc2C2CC=C(c3ccc(F)cc3)CC2)C1` (racemic) [Example 5, (RS)-8-Chloro-1-[4-(4-fluoro-phenyl)-cyclohex-3-enyl]-4H,6H-2,3,5,10b-tetraaza-benzo[e]azulene-5-carboxylic acid tert-butyl ester] here?
**A.** 8.32 nM

**Q.** For `CN1Cc2cc(Cl)ccc2-n2c(nnc2C2CC=C(c3cc(F)ccn3)CC2)C1` (racemic) [Example 27, (RS)-8-Chloro-1-[4-(4-fluoro-pyridin-2-yl)-cyclohex-3-enyl]-5-methyl-5,6-dihydro-4H-2,3,5,10b-tetraaza-benzo[e]azulene], which Ki is on record?
**A.** 10.5 nM

**Q.** How did the Ki turn out when `COc1ccc(F)cc1C1=CCC(c2nnc3n2-c2ccc(Cl)cc2CNC3)CC1` (racemic) [Example 18, (RS)-8-Chloro-1-[4-(5-fluoro-2-methoxy-phenyl)-cyclohex-3-enyl]-5,6-dihydro-4H-2,3,5,10b-tetraaza-benzo[e]azulene hydrochloride] was run?
**A.** 97.7 nM

**Q.** With `Cc1nc(C2=CCC(c3nnc4n3-c3ccc(Cl)cc3CN(C)C4)CC2)cs1` (racemic) [Example 36, (RS)-8-Chloro-5-methyl-1-[4-(2-methyl-thiazol-4-yl)-cyclohex-3-enyl]-5,6-dihydro-4H-2,3,5,10b-tetraaza-benzo[e]azulene] as the molecule, how does the Ki read?
**A.** 13.5 nM

**Q.** `Fc1ccnc(C2=CCC(c3nnc4n3-c3ccc(Cl)cc3CNC4)CC2)c1` (racemic) [Example 26, (RS)-8-Chloro-1-[4-(4-fluoro-pyridin-2-yl)-cyclohex-3-enyl]-5,6-dihydro-4H-2,3,5,10b-tetraaza-benzo[e]azulene] was tested. Which Ki did it give?
**A.** 110 nM

**Q.** With `CN1Cc2cc(Cl)ccc2-n2c(nnc2C2CC=C(c3ccccn3)CC2)C1` (single isomer, unassigned; (-)) [Example 23, (−)-8-Chloro-5-methyl-1-(-4-pyridin-2-yl-cyclohex-3-enyl)-5,6-dihydro-4H-2,3,5,10b-tetraaza-benzo[e]azulene] as the molecule, how does the Ki read?
**A.** 7.59 nM

**Q.** With `Cc1nc(C2=CCC(c3nnc4n3-c3ccc(Cl)cc3CNC4)CC2)cs1` (racemic) [Example 35, (RS)-8-Chloro-1-[4-(2-methyl-thiazol-4-yl)-cyclohex-3-enyl]-5,6-dihydro-4H-2,3,5,10b-tetraaza-benzo[e]azulene] as the molecule, how does the Ki read?
**A.** 170 nM

**Q.** For `CN1Cc2cc(Cl)ccc2-n2c(nnc2C2CC=C(c3cccc(F)c3Cl)CC2)C1` (racemic) [Example 13, (RS)-8-Chloro-1-[4-(2-chloro-3-fluoro-phenyl)-cyclohex-3-enyl]-5-methyl-5,6-dihydro-4H-2,3,5,10b-tetraaza-benzo[e]azulene], which Ki is on record?
**A.** 5.75 nM

**Q.** `CN1Cc2cc(Cl)ccc2-n2c(nnc2C2CC=C(c3ccc(F)cc3)CC2)C1` (racemic) [Example 7, (RS)-8-Chloro-1-[4-(4-fluoro-phenyl)-cyclohex-3-enyl]-5-methyl-5,6-dihydro-4H-2,3,5,10b-tetraaza-benzo[e]azulene] was tested. Which Ki did it give?
**A.** 6.76 nM

**Q.** How did the Ki turn out when `Cc1nc(C2=CCC(c3nnc4n3-c3ccc(Cl)cc3CN(C(=O)OC(C)(C)C)C4)CC2)cs1` (racemic) [Example 34, (RS)-8-Chloro-1-[4-(2-methyl-thiazol-4-yl)-cyclohex-3-enyl]-4H,6H-2,3,5,10b-tetraaza-benzo[e]azulene-5-carboxylic acid tert-butyl ester] was run?
**A.** 3.72 nM

**Q.** How did the Ki turn out when `CC(C)(C)OC(=O)N1Cc2cc(Cl)ccc2-n2c(nnc2C2CC=C(c3ncccc3F)CC2)C1` (single isomer, unassigned; (+)) [Example 29, (+)-8-Chloro-1-[-4-(3-fluoro-pyridin-2-yl)-cyclohex-3-enyl]-4H,6H-2,3,5,10b-tetraaza-benzo[e]azulene-5-carboxylic acid tert-butyl ester] was run?
**A.** 0.794 nM

**Q.** `CN1Cc2cc(Cl)ccc2-n2c(nnc2C2CC=C(c3cccc(OC(F)(F)F)c3)CC2)C1` (racemic) [Example 10, (RS)-8-Chloro-5-methyl-1-[4-(3-trifluoromethoxy-phenyl)-cyclohex-3-enyl]-5,6-dihydro-4H-2,3,5,10b-tetraaza-benzo[e]azulene] was tested. Which Ki did it give?
**A.** 58.9 nM

**Q.** For `CC(C)(C)OC(=O)N1Cc2cc(Cl)ccc2-n2c(nnc2C2CC=C(c3cccc4ccccc34)CC2)C1` (racemic) [Example 14, (RS)-8-Chloro-1-(4-naphthalen-1-yl-cyclohex-3-enyl)-4H,6H-2,3,5,10b-tetraaza-benzo[e]azulene-5-carboxylic acid tert-butyl ester], which Ki is on record?
**A.** 11 nM

**Q.** `CC(C)(C)OC(=O)N1Cc2cc(Cl)ccc2-n2c(nnc2C2CC=C(c3cccc(F)c3Cl)CC2)C1` (racemic) [Example 11, (RS)-8-Chloro-1-[4-(2-chloro-3-fluoro-phenyl)-cyclohex-3-enyl]-4H,6H-2,3,5,10b-tetraaza-benzo[e]azulene-5-carboxylic acid tert-butyl ester] was tested. Which Ki did it give?
**A.** 8.13 nM

**Q.** Which Ki does the source give for `Fc1cccc(C2=CCC(c3nnc4n3-c3ccc(Cl)cc3CNC4)CC2)c1Cl` (racemic) [Example 12, (RS)-8-Chloro-1-[4-(2-chloro-3-fluoro-phenyl)-cyclohex-3-enyl]-5,6-dihydro-4H-2,3,5,10b-tetraaza-benzo[e]azulene hydrochloride] here?
**A.** 28.8 nM

Same assay, conditions: pKi (hV1a), 3H-Vasopressin displacement, HEK293 cell membranes, SPA beads, 1 h at room temperature, Ki by Cheng-Prussoff from IC50

**Q.** For `CN1Cc2cc(Cl)ccc2-n2c(nnc2C2CC=C(c3ccccc3)CC2)C1` (racemic) [Example 2, (RS)-8-Chloro-5-methyl-1-(4-phenyl-cyclohex-3-enyl)-5,6-dihydro-4H-2,3,5,10b-tetraaza-benzo[e]azulene], which Ki is on record?
**A.** 2.69 nM
